{
  "source": "patent US20240287046A1",
  "about": "“COMPOUNDS AND RADIOLIGANDS FOR TARGETING NEUROTENSIN RECEPTOR AND USES THEREOF” (Full-Life Technologies HK Limited, priority 2022, published 2024)",
  "tested_on": "ASPC-1 tumor-bearing mice",
  "assay": "Biodistribution of radionuclide labeled complexes in ASPC-1 tumor-bearing mice",
  "format": "in vivo, BALB/c nude mice",
  "protocol": "The BALB/c nude mice (Charles River, Beijing) were utilized to establish the xenografted model for biodistribution study. All animal care and experimental procedure were performed by following the animal protocols approved by the ethics committee of China Institute of Radiation Protection.\nBriefly, each mouse was inoculated with approximately 4×10^6 ASPC-1 cells (human pancreatic cancer cell line) or HT-29 cells (human colorectal adenocarcinoma cell line) expressing human NTSR-1 by subcutaneous injection at rear flank. After inoculation, the xenografted tumors were allowed to grow for ˜2-4 weeks till the tumor weight reached to about 0.05 to 0.50 g (0.20 g in average).\nBiodistribution studies were performed by administrating the radionuclide labeled test compound at a dose of ˜30-50 μCi (100 μL in 0.9% NaCl, ˜1.11-1.85 MBq, with specific activity 30-250 μCi/nmol) to each animal through tail vein injection.\nAt different time points after the administration, the mice treated with each compound were euthanized. The tissues and organs of the animals in each group were collected, excised, weighed, and analyzed in a PerkinElmer 2480 WIZARD2γ counter, and the percent injected dose (% ID) and % ID/g of each organ or tissue were calculated.",
  "data": [
    {"smiles": "COc1cccc(OC)c1-c1cc(C(=O)NC2(C(=O)O)C3CC4CC(C3)CC2C4)nn1-c1ccc(C(=O)N(CCCNC(=O)CN2CCN(CC(=O)[O-])CCN(CC(=O)[O-])CCN(CC(=O)[O-])CC2)CCCN(C)C)cc1C(C)C.[177Lu+3]", "note": "(stereo not shown) [^177Lu-C-5, reference compound]", "values": [
      {"measurement": "uptake ratio Tumor/Blood", "setting": "1 h", "value": 4.7},
      {"measurement": "uptake ratio Tumor/Kidney", "setting": "1 h", "value": 17.2},
      {"measurement": "uptake ratio Tumor/Liver", "setting": "1 h", "value": 17.9},
      {"measurement": "uptake ratio Tumor/Lung", "setting": "1 h", "value": 9.0},
      {"measurement": "uptake ratio Tumor/Blood", "setting": "4 h", "value": 60.5},
      {"measurement": "uptake ratio Tumor/Kidney", "setting": "4 h", "value": 40.0},
      {"measurement": "uptake ratio Tumor/Liver", "setting": "4 h", "value": 16.6},
      {"measurement": "uptake ratio Tumor/Lung", "setting": "4 h", "value": 43.3},
      {"measurement": "% ID/g (1 h) Blood", "setting": "Blood, 1 h", "value": "3.18 ± 0.24", "unit": "% ID/g"},
      {"measurement": "% ID/g (4 h) Blood", "setting": "Blood, 4 h", "value": "0.22 ± 0.07", "unit": "% ID/g"},
      {"measurement": "% ID/g (1 h) Femur", "setting": "Femur, 1 h", "value": "0.53 ± 0.04", "unit": "% ID/g"},
      {"measurement": "% ID/g (4 h) Femur", "setting": "Femur, 4 h", "value": "0.13 ± 0.1", "unit": "% ID/g"},
      {"measurement": "% ID/g (1 h) Heart", "setting": "Heart, 1 h", "value": "1.46 ± 0.24", "unit": "% ID/g"},
      {"measurement": "% ID/g (4 h) Heart", "setting": "Heart, 4 h", "value": "0.16 ± 0.06", "unit": "% ID/g"},
      {"measurement": "% ID/g (1 h) Intestine", "setting": "Intestine, 1 h", "value": "1.28 ± 0.11", "unit": "% ID/g"},
      {"measurement": "% ID/g (4 h) Intestine", "setting": "Intestine, 4 h", "value": "0.42 ± 0.16", "unit": "% ID/g"},
      {"measurement": "% ID/g (1 h) Kidney", "setting": "Kidney, 1 h", "value": "0.87 ± 0.05", "unit": "% ID/g"},
      {"measurement": "% ID/g (4 h) Kidney", "setting": "Kidney, 4 h", "value": "0.33 ± 0.09", "unit": "% ID/g"},
      {"measurement": "% ID/g (1 h) Liver", "setting": "Liver, 1 h", "value": "0.84 ± 0.43", "unit": "% ID/g"},
      {"measurement": "% ID/g (4 h) Liver", "setting": "Liver, 4 h", "value": "0.79 ± 0.08", "unit": "% ID/g"},
      {"measurement": "% ID/g (1 h) Lung", "setting": "Lung, 1 h", "value": "1.66 ± 0.93", "unit": "% ID/g"},
      {"measurement": "% ID/g (4 h) Lung", "setting": "Lung, 4 h", "value": "0.3 ± 0.15", "unit": "% ID/g"},
      {"measurement": "% ID/g (1 h) Muscle", "setting": "Muscle, 1 h", "value": "0.31 ± 0.05", "unit": "% ID/g"},
      {"measurement": "% ID/g (4 h) Muscle", "setting": "Muscle, 4 h", "value": "0.06 ± 0.02", "unit": "% ID/g"},
      {"measurement": "% ID/g (1 h) Pancreas", "setting": "Pancreas, 1 h", "value": "0.26 ± 0.05", "unit": "% ID/g"},
      {"measurement": "% ID/g (4 h) Pancreas", "setting": "Pancreas, 4 h", "value": "0.06 ± 0.02", "unit": "% ID/g"},
      {"measurement": "% ID/g (1 h) Spleen", "setting": "Spleen, 1 h", "value": "0.26 ± 0.05", "unit": "% ID/g"},
      {"measurement": "% ID/g (4 h) Spleen", "setting": "Spleen, 4 h", "value": "0.08 ± 0.03", "unit": "% ID/g"},
      {"measurement": "% ID/g (1 h) Stomach", "setting": "Stomach, 1 h", "value": "0.55 ± 0.13", "unit": "% ID/g"},
      {"measurement": "% ID/g (4 h) Stomach", "setting": "Stomach, 4 h", "value": "0.4 ± 0.22", "unit": "% ID/g"},
      {"measurement": "% ID/g (1 h) Tumor", "setting": "Tumor, 1 h", "value": "14.96 ± 6.57", "unit": "% ID/g"},
      {"measurement": "% ID/g (4 h) Tumor", "setting": "Tumor, 4 h", "value": "13.06 ± 6.54", "unit": "% ID/g"}
    ]},
    {"smiles": "COc1cccc(OC)c1-c1cc(C(=O)NC2(C(=O)O)C3CC4CC(C3)CC2C4)nn1-c1ccc(N(C)CCCN(C)CCCN(C)C(=O)CN2CCN(CC(=O)[O-])CCN(CC(=O)[O-])CCN(CC(=O)[O-])CC2)cc1C(C)C.[177Lu+3]", "note": "(stereo not shown) [^177Lu-I-1]", "values": [
      {"measurement": "tumor AUC over 72 hours compared to ^177Lu—C2", "value": "significantly higher tumor AUC"},
      {"measurement": "% ID/g (4 h) Blood", "setting": "Blood, 4 h", "value": "2.08 ± 0.14", "unit": "% ID/g"},
      {"measurement": "% ID/g (24 h) Blood", "setting": "Blood, 24 h", "value": "0.06 ± 0.02", "unit": "% ID/g"},
      {"measurement": "% ID/g (72 h) Blood", "setting": "Blood, 72 h", "value": "0.04 ± 0.01", "unit": "% ID/g"},
      {"measurement": "% ID/g (4 h) Femur", "setting": "Femur, 4 h", "value": "0.72 ± 0.05", "unit": "% ID/g"},
      {"measurement": "% ID/g (24 h) Femur", "setting": "Femur, 24 h", "value": "0.19 ± 0.09", "unit": "% ID/g"},
      {"measurement": "% ID/g (72 h) Femur", "setting": "Femur, 72 h", "value": "0.15 ± 0.06", "unit": "% ID/g"},
      {"measurement": "% ID/g (4 h) Heart", "setting": "Heart, 4 h", "value": "0.68 ± 0.5", "unit": "% ID/g"},
      {"measurement": "% ID/g (24 h) Heart", "setting": "Heart, 24 h", "value": "0.24 ± 0.1", "unit": "% ID/g"},
      {"measurement": "% ID/g (72 h) Heart", "setting": "Heart, 72 h", "value": "0.18 ± 0.03", "unit": "% ID/g"},
      {"measurement": "% ID/g (4 h) Intestine", "setting": "Intestine, 4 h", "value": "0.98 ± 0.2", "unit": "% ID/g"},
      {"measurement": "% ID/g (24 h) Intestine", "setting": "Intestine, 24 h", "value": "0.37 ± 0.07", "unit": "% ID/g"},
      {"measurement": "% ID/g (72 h) Intestine", "setting": "Intestine, 72 h", "value": "0.51 ± 0.1", "unit": "% ID/g"},
      {"measurement": "% ID/g (4 h) Kidney", "setting": "Kidney, 4 h", "value": "3.66 ± 2.51", "unit": "% ID/g"},
      {"measurement": "% ID/g (24 h) Kidney", "setting": "Kidney, 24 h", "value": "3.16 ± 1.81", "unit": "% ID/g"},
      {"measurement": "% ID/g (72 h) Kidney", "setting": "Kidney, 72 h", "value": "1.3 ± 0.61", "unit": "% ID/g"},
      {"measurement": "% ID/g (4 h) Liver", "setting": "Liver, 4 h", "value": "1.81 ± 0.43", "unit": "% ID/g"},
      {"measurement": "% ID/g (24 h) Liver", "setting": "Liver, 24 h", "value": "0.97 ± 0.45", "unit": "% ID/g"},
      {"measurement": "% ID/g (72 h) Liver", "setting": "Liver, 72 h", "value": "1.06 ± 0.46", "unit": "% ID/g"},
      {"measurement": "% ID/g (4 h) Lung", "setting": "Lung, 4 h", "value": "0.64 ± 0.1", "unit": "% ID/g"},
      {"measurement": "% ID/g (24 h) Lung", "setting": "Lung, 24 h", "value": "0.31 ± 10.1", "unit": "% ID/g"},
      {"measurement": "% ID/g (72 h) Lung", "setting": "Lung, 72 h", "value": "0.33 ± 0.28", "unit": "% ID/g"},
      {"measurement": "% ID/g (4 h) Muscle", "setting": "Muscle, 4 h", "value": "0.47 ± 0.25", "unit": "% ID/g"},
      {"measurement": "% ID/g (24 h) Muscle", "setting": "Muscle, 24 h", "value": "0.13 ± 0.05", "unit": "% ID/g"},
      {"measurement": "% ID/g (72 h) Muscle", "setting": "Muscle, 72 h", "value": "0.06 ± 0.01", "unit": "% ID/g"},
      {"measurement": "% ID/g (4 h) Pancreas", "setting": "Pancreas, 4 h", "value": "0.41 ± 0.28", "unit": "% ID/g"},
      {"measurement": "% ID/g (24 h) Pancreas", "setting": "Pancreas, 24 h", "value": "0.18 ± 0.09", "unit": "% ID/g"},
      {"measurement": "% ID/g (72 h) Pancreas", "setting": "Pancreas, 72 h", "value": "0.07 ± 0.04", "unit": "% ID/g"},
      {"measurement": "% ID/g (4 h) Spleen", "setting": "Spleen, 4 h", "value": "0.42 ± 0.16", "unit": "% ID/g"},
      {"measurement": "% ID/g (24 h) Spleen", "setting": "Spleen, 24 h", "value": "0.53 ± 0.25", "unit": "% ID/g"},
      {"measurement": "% ID/g (72 h) Spleen", "setting": "Spleen, 72 h", "value": "0.24 ± 0.08", "unit": "% ID/g"},
      {"measurement": "% ID/g (4 h) Stomach", "setting": "Stomach, 4 h", "value": "0.57 ± 0.16", "unit": "% ID/g"},
      {"measurement": "% ID/g (24 h) Stomach", "setting": "Stomach, 24 h", "value": "0.28 ± 0.17", "unit": "% ID/g"},
      {"measurement": "% ID/g (72 h) Stomach", "setting": "Stomach, 72 h", "value": "0.1 ± 0.02", "unit": "% ID/g"},
      {"measurement": "% ID/g (4 h) Tumor", "setting": "Tumor, 4 h", "value": "6.93 ± 0.71", "unit": "% ID/g"},
      {"measurement": "% ID/g (24 h) Tumor", "setting": "Tumor, 24 h", "value": "22.56 ± 1.81", "unit": "% ID/g"},
      {"measurement": "% ID/g (72 h) Tumor", "setting": "Tumor, 72 h", "value": "7.23 ± 4.46", "unit": "% ID/g"},
      {"measurement": "ratio of tumor AUC verse normal organ AUC", "setting": "compared to ^177Lu—C2", "value": "significantly improved"}
    ]}
  ]
}
